Laboratory results published in US6544952B1, “Synthesis of glycoconjugates of the globo-H epitope and uses thereof” (Sloan-Kettering Institute for Cancer Research, priority 1994, dated 2003).
Where two headings read alike, the source gives them in different places.

Key:
[1] = tested on: mice (antibodies against the immunizing antigen); test: immunization of mice with Le^y conjugates 17c and 32c, ELISA antibody titer; assay type: in vivo; settings: one set of 5 mice; graphs J-L
Procedure: The stage was set for immunizations with conjugates 17c and 32c. The immunizations with the BSA conjugate 17c were carried out on two sets of 5 mice and the immunizations with the ceramide conjugate 32c were carried out on one set of 5 mice. An enzyme-linked immunosorbant assay (ELISA) was used to measure antibody titer (FIG. 20(b)). Three different ELISA experiments were performed to measure antibody titer. The first is the measure of total antibody response (aIg), that is the summation of IgM and IgG antibodies, as shown in graphs A, D, G. and J of FIGS. 21(a) and (b). The other two assays measure IgM and IgG antibodies separately as indicated in the graphs. The ELISA assay (see FIG. 20(b)) involves the immobilization of a test antigen in a microtiter well. The serum to be tested for antibodies is placed in the well. Any antibodies in the serum recognizing the test antigen will remain in the well after thorough washing. Next, modified anti-mouse Ig, IgM, or IgG antibodies are placed in the well. […] The presence of the alkaline phosphatase-linked secondary antibody causes cleavage of the phosphate, yielding the yellow p-nitrophenolate anion, which can be quantified using spectrophotometric techniques.
Graphs A, B, and C in FIG. 21(a) show the measured titers of total antibody Ig (A), IgM (B), and IgG (C) type antibodies in five mice immunized with conjugate 17c. […]

MBr1 monoclonal antibody = test: Immune TLC with monoclonal antibody MBr1; assay type: binding, murine; settings: comparable staining with 1/10 the amount of antigen
[2] = tested on: MAb MBr1 with breast cancer cell lines such as MCF-7; test: flow cytometry inhibition assay of mAb MBr1 reactivity with MCF-7; assay type: cell-based; settings: for inhibition of reactivity of MAb MBr1 with breast cancer cell lines such as MCF-7: 8 μg/ml of preparation
Procedure: By Thin Layer Chromatography (TLC) the 2 preparations migrate as similar single bands. […] The high level of reactivity of the β structure with mAb MBr1 was confirmed using flow cytometry inhibition assays. Reactivity of MAb MBr1 with breast cancer cell lines such as MCF-7 was 98% inhibited by 8 μg/ml of the β linkage preparation but was only 6% inhibited by 8 μg of the α-linkage preparation.
(§1) The breast tumor glycolipid associated antigen 2 (See FIG. 24) isolated by Hakomori and co-workers from MCF-7 cells, and termed globe H, constituted a promising possibility for exploration (Kannagi, R., et al., J. Biol. Chem. 1983, 258, 8934; Bremer, G., et al., J. Biol. Chem. 1984 259, 14773). Early studies in this area were facilitated by the immunocharacterization of the antigen by the murine monoclonal antibody Mbr1 (Menard, S., et al., Cancer Res. 1983, 43, 1295). Previously, we had described the total synthesis of the hexacyclic globo H glycal 1 (See FIG. 24) by the method of glycal assembly (See FIG. 24) (Bilodeau, M.T., et al., J. Am. Chem. Soc. 1995 117, 7840; Park, et al., J. Am. Chem. Soc. 1996, 118, 11488). This system was carried forward to reach antigen 2 (See FIG. 24), whose structure assignment was verified by unambiguous spectroscopic corroboration through this synthesis.

mAb MBr1 = test: binding to mAb MBr1, mapping of structural requirements; parameters: species or system murine
Source text: as §1
We then built upon the logic of our synthesis to prepare congeners of the compound and to use them to map the structural requirements for binding to the mAb MBr1.

[3] = tested on: antisera binding to globo H antigen 2; test: inhibition of binding of anti-globo H antisera to globo H antigen 2 (ELISA); parameters: species or system mice
Source text: As an indication of specificity, we conducted assays with compounds 2-8 of FIGS. 24 and 25 to determine their ability to inhibit the binding of antisera to the fully synthetic globo H antigen 2 (FIG. 28). […] Partial inhibition resulted from truncated globo H compounds, but not with unrelated compounds such as ganglioside GD3. These findings are consistent with a polyclonal serological response in which different antibodies react with different portions of compound 2.

Compound | IgG response [1] | IgM response [1] | reactivity with MBr1 monoclonal antibody, β-form relative to the other form (MBr1 monoclonal antibody) | inhibition of MBr1 binding to MCF-7 cells [2] | inhibition of reactivity of MAb MBr1 with breast cancer cell lines such as MCF-7 [2] | binding to mAb MBr1 (mAb MBr1) | binding to mAb MBr1 (mAb MBr1; listed as 1b) | inhibition of binding of antisera to globo H antigen 2 [3]
CCCCCCCCCCCCCC=C[C@@H](O)[C@@H](CO[C@@H]1O[C@H](CO)[C@@H](O[C@@H]2O[C@H](CO)[C@H](O)[C@H](O)[C@H]2O[C@@H]2O[C@@H](C)[C@@H](O)[C@@H](O)[C@@H]2O)[C@H](O[C@@H]2O[C@@H](C)[C@@H](O)[C@@H](O)[C@@H]2O)[C@H]1NC(C)=O)NC(=O)CCCCCCCCCCCCCCC [32c, (3R)-Hydroxy-(2R)-hexadecanamido-4-octadecenyl-[[[(6-deoxy-a-L-galactopyranosyl)-(1→2)]-(b-D-galactopyranosyl)-(1→4)]-(6-deoxy-a-L-galactopyranosyl)-(1→3)]-2-deoxy-2-acetamido-b-D-glucopyranose] | No mice showed any IgG response | Most mice showed only a weak IgM response |  |  |  |  |  | 
Fuca1→GalB1→3GalNAcB1→3Galα1→4GlB1→4GcB1→1Cer [compound 2] |  |  | 10 times | inhibited its binding to MCF-7 cells | 98% | bind to the murine monoclonal antibody (mAb) MBr1 | bind to the monoclonal antibody MBr1 | complete inhibition
Fucα1→2GalB1→3GalNAcα1→3Galα1→4GalB1→1Cer [α-linkage preparation] |  |  |  |  | 6% |  |  | 
